Tested on: rabbit osteoclast model (osteoclast resorption)
Experiment: Supernatants of incubated CDA samples tested in rabbit osteoclast model (FIG. 6)
Format: cell-based
Details: supernatant after 96 hours at 37° C. (200 mg in 5 ml culture medium) or 10^−6 M zoledronate solution; pure, diluted 10-, 100- and 1000-fold
Procedure: Several samples of CDA (200 mg) modified by adding zoledronate in accordance with the process of example 1 and several samples of unmodified CDA were incubated in 5 ml of culture medium at 37° C. After incubation for 96 hours, the various supernatants were collected and used pure, diluted 10-fold, 100-fold and 1000-fold in a rabbit osteoclast model.
The results are represented in FIG. 6, in which the percentage of resorption R is indicated on the y-axis, the conditions being indicated on the x-axis. Among the conditions: • “vehicle” means the culture medium alone • “pure CDA” means the supernatant derived from the incubation of pure CDA in the culture medium; “CDA 1/10”, “CDA 1/100” and “CDA 1/1000” mean, respectively, the solution referred to above and diluted to 1/10, 1/100 and 1/1000 • “pure zo” means a 10^−6 M solution of zoledronate in the culture medium, “zo 1/10”, “zo 1/100” and “zo 1/1000” mean, respectively, the solution referred to above and diluted to 1/10, 1/100 and 1/1000 • “pure CDAzo” means the supernatant derived from the incubation of zoledronate-containing CDA in the culture medium, and “CDAzo 1/10”, “CDAzo 1/100” and “CDAzo 1/1000” mean, respectively, the solution referred to above and diluted to 1/10, 1/100 and 1/1000.

O=P(O)(O)C(O)(Cn1ccnc1)P(=O)(O)O [zoledronate]
effect on osteoclast resorption (percentage of resorption R, FIG. 6): inhibits resorption according to a dose/effect relationship

Source: patent US8044037B2, “Modified phosphocalcic compound, injectable composition containing same” (Centre National de la Recherche Scientifique, priority 2002, dated 2011)
